From patent publication US20150017673A1, “COMPOSITIONS AND METHODS FOR DRUG-SENSITIZATION OR INHIBITION OF A CANCER CELL” (priority 2012, published 2015)

System: G3 CHOP-resistant NHL cells
Experimental: In a first efficacy study, 6-8 week old female SCID mice (7 mice per treatment arm) were injected subcutaneously on both flanks with 1×10^7 G3 CHOP-resistant NHL cells. Once palpable tumors (about […] size) appeared, therapies (CHOP or CHOP+rifabutin) were started. CHOP was administered at the maximum tolerated dose (cyclophosphamide, 40 mg/kg i.v.; doxorubicin, 3.3 mg/kg i.v.; vincristine, 0.5 mg/kg i.v.; and prednisone, 0.2 mg/kg orally daily for 5 d) weekly for 3 weeks. Rifabutin in an amount of 100 mg/kg was administered on the day of each CHOP treatment and 24-hours later by gavage. Mouse body weight and tumor size were monitored every two days and tumor size measured by caliper. The tumor volume formula (L*W*W)/2 was used to calculate tumor mass.
A second efficacy study was conducted where mice were treated before the appearance of palpable tumors. In that experiment, one week after transplantation of CHOP-resistant G3 cells, one group (7 mice) was treated with CHOP-only and a second group (8 mice) was treated with CHOP+rifabutin.
A third study was conducted in which mice injected with CHOP-resistant G3 cells received reduced dosages of CHOP in combination with 33 mg/kg rifabutin. CHOP+rifabutin was administered weekly beginning one week post-inoculation. Control mice were given no CHOP or rifabutin.
SCID mice were injected with CHOP-resistant G3 cells in the same manner as the first efficacy study above. Treatments began 2 weeks post-inoculation and were administered twice weekly.

CO[C@H]1/C=C/O[C@@]2(C)Oc3c(C)c(O)c4c(c3C2=O)C2=NC3(CCN(CC(C)C)CC3)NC2=C(NC(=O)/C(C)=C\C=C\[C@H](C)[C@H](O)[C@@H](C)[C@@H](O)[C@@H](C)[C@H](OC(C)=O)[C@@H]1C)C4=O [Rifabutin, rifabutin]
overall tumor burden per mouse (first study, rifabutin 100 mg/kg by gavage with CHOP at maximum tolerated dose weekly for 3 weeks, versus CHOP only): much lower | toxicity of the rifabutin dosage in the mice (mouse, in vivo): little or not toxicity | injection sites that developed tumors (second study, treated before palpable tumors, CHOP+rifabutin group, 6 of 16 sites): 37.5% | tumor load (third study, reduced dosages of CHOP with 33 mg/kg rifabutin weekly, versus untreated mice): significantly less
